Patent US20220272990A1, “Methods and Compositions of the Botanical Extract to Promote and Boost Plant Growth and Prevent and Suppress Plant Diseases” (priority 2019, published 2022)

Experiments:
Fusarium graminearum = type: cell-based; conditions: thyme, yarrow extracts; 35% ethanol
Env. Salmonella (S22) = assay: Burkholder's spot bioassay on carpet of bacteria; type: cell-based; conditions: Salmonella spp. (S22); composition 2% + thymol 1:512, or single dose of thymol 1:512
Method: Referring now to FIGS. 26A to 26C, environmental Salmonella (S22) treated with thyme, yarrow, the botanical composition and control (C) are shown. […] A determined volume of (i.e. 10 μl) dissolved extract from each concentration is spotted on carpet of bacteria.

Salmonella (S31) = assay: Burkholder's spot bioassay on carpet of bacteria; type: cell-based; conditions: Salmonella spp. (S531); composition 2% + thymol 1:512, or single dose of thymol 1:512
Source text: Referring now to FIG. 28, Salmonella (S31—mungbean sprout isolate) treated with thyme is shown.

Aspergillus ochraceus = assay: Antifungal and MIC spot assay on carpet of fungi; conditions: composition 1% + thymol 1:768, or thymol 1:768 alone
Xanthomonas campestris = assay: Burkholder's spot bioassay on carpet of bacteria; type: cell-based
[1] = tested on: Pathogenic Salmonella (S1); assay: Burkholder's spot bioassay on carpet of bacteria; type: cell-based; conditions: Salmonella spp. (SL1); composition 2% + thymol 1:512, or single dose of thymol 1:512

SMILES	inhibition of spore germination (Fusarium graminearum)	antimicrobial effectiveness (Env. Salmonella (S22))	antimicrobial effectiveness (Salmonella (S31))	antifungal effectiveness on growth (Aspergillus ochraceus)	antimicrobial effectiveness (Xanthomonas campestris)	antimicrobial effectiveness [1]
CCO [35% ethanol, ethanol]	complete inhibition	–	–	–	–	–
Cc1ccc(C(C)C)c(O)c1 [thymol]	–	not effective	not effective	not effective	not effective	not effective
